One substance from patent publication US20020019336A1, “Sustained release drug compositions” (priority 2000, published 2002) can be followed below.

This experiment relates to neovascularization. The experiment in a line: neovascularization after subcutaneous injection or implantation in rats. As to conditions: back subcutaneous tissue, seven days after administration, 1 μg bFGF. The format is in vivo. How it is done: The compositions listed in Table 1 below were generated essentially according to Example 9, with modifications as indicated.
All compositions, including controls, were injected or implanted into the back subcutaneous tissue of rats. It was known that bFGF promotes neovascularization. Seven days after administration, each rat was evaluated for neovascularization at the area peripheral to the site of injection or implantation.
To distinguish newly synthesized blood vessels from pre-existing ones, lipid microspheres were injected into […] just superficial to the pre-existing capillary bed early in the experiment (at day 0). At the end of the experiment, the neovascular capillaries, if any, would reside superficial to the microspheres. Thus, new capillaries were easily identified by seeing whether there was vascularization above (superficial to) the microspheres at the end of the experiment.

Consider “basic fibroblast growth factor [bFGF alone]”, for which the “neovascularization at area peripheral to site of injection or implantation” value is reported as “no neovascularization”.
